Reference: patent publication US20220339233A1, “COMPOSITIONS AND METHODS FOR PREVENTING RECURRENCE OF CANCER” (YALE UNIVERSITY, priority 2019, published 2022)

What was measured:
mouse IDO = target: T1, mouse IDO (Mus musculus, UniProt P28776); experiment: IDO activity of IDO transfected HEK293 cells; type: cell-based; conditions: L-tryptophan 125 μM, 24 hr, kynurenine in medium
T1 construct: expressed in transfected cells; host or cells: HEK293
Procedure: HEK293 cells were transfected with mouse IDO expression plasmids and then seeded for culturing overnight. L-tryptophan 125 μM with or without YIV906, YIV906GU or its flavonoids were added to the wells for 24 hr. The concentration of kynurenine of culture medium was measured using colorimetric based assay. Results were normalized to protein concentration in each well.
2×10^6 HEK293 cells were transfected with mouse IDO (2 μg/10 cm plate) for 48 h. For one plate, 1 mL PBS was used to collect cells into a 2 ml tube. Cells were centrifuged at 3,500 rpm 1 min. Cells were then sonicated in ice cold PB buffer (1 mL, pH 6.5). Cell lysis was clarified by centrifuging at 12,000 rpm for 5 min at 4° C. 25 μL cell lysis solution was mixed with YIV906 or YIV906GU (25 μL) at desired concentrations. Reaction buffer containing 50 μL PB buffer (100 mM, pH 6.5), 10 μL methylene blue (2.5%), 100 μL catalase (20 mg/mL), 250 μL L-tryptophan (500 mM) and, for every 10 mL of total solution, 70 mg of vitamin C. The reaction buffer was then added to the cell lysis solution. The solution was allowed to react for 1.5 h at 37° C. Trichloroacetic acid 30% (25 μL) was added and incubated at 50° C. for 1 hr. […] Absorbance at 540 nm was measured using a UV-vis spectrometer to determine kynurenine concentration.

[1] = LC-MS detection of YIV-906 compounds of Hepa 1-6 tumor; set-up: species or system mice; conditions: mouse, in vivo; for detection in the tumor mass: po
Procedure: (§1) FIGS. 12A-12C show the effects of various YIV-906 formulations on M1/M2 mRNA expression. […] Raw cells were cultured in the presence of murine M-CSF (10 ng/mL) for 3 days, and then cultured in presence with IFNγ 10 ng/mL alone or with YIV-906GU/its components to induce polarization to M1-like macrophage for 24 h. The mRNA expression was determined by RT-qPCR following treatment at day 8. FIG. 12C illustrates the detection of YIV-906 compounds of Hepa 1-6 tumor following oral administration of YIV-906 with or without Anti-PD1 using LC-MS as described herein.
Each tumor sample were homogenized in 200 μL acetronitrile/methanol/water(2/2/1, v/v/v) and 1 mm glass beads (BioSpec Products, Bartlesville, Okla.) for 30 s at 3500 rpm twice. The homogenate was then centrifuged at 12000 rpm for 15 min at 4° C. The supernatant was dried down in a Speedvac. The residue of each tumor sample was re-dissolved in 100 μL of acetonitrile, and vortexed at 3000 rpm for 3 min. The solution was then centrifuged at 12000 rpm at 4° C. for 15 min, and 2 μL supernatant was injected into the UPLC-QTOF system for analysis. All sample analyses were performed on an ACQUITY ultra-performance liquid chromatography (UPLC) system coupled with a quadrupole-time of flight (Q-TOF) MS instrument (UPLC Xevo G2-XS QTOF MS, Waters Corp., Milford, Mass., USA) with an electrospray ionization (ESI) source. Separation was carried out on a Waters ACQUITY BEH C18 column (2.1 mm×100 mm id, 1.7 μm) with a guard column (Waters ACQUITY BEH C18 column (2.1 mm×5 mm id, 1.7 μm)).
The mobile phase consisted of acetonitrile (A) and water containing 0.1% formic acid (B) using a gradient elution of 5% A at 0-2 min, 5-10% A at 2-3 min, 10-17% A at 3-10 min, 17-30% A at 10-15 min, 30-40% A at 15-20 min, 40-80% A at 20-25 min, 80% A at 25-30 min, 80-5% A at 30-31 min, and 5% A at 31-35 min. The flow rate was 0.3 mL/min. Mass spectrometry was performed on a Water Xevo G2-XS QTOF. The scan range was from 50 to 1000 Da. For the negative electrospray mode, the capillary voltage and cone voltage were set at 2.5 kV and 60 V, respectively. […]

Raw cells = experiment: iNOS/Arg mRNA expression of macrophage with IFNγ (RT-qPCR); type: cell-based; conditions: in the presence of IFNγ 10 ng/mL; GU treated
Procedure: as §1
Total RNA was extracted with TRIzol reagent (Invitrogen, California, USA). The aqueous phase was collected and then one volume of ethanol was added, following the manufacturer's instructions. Before centrifuging, this slurry was added to a column (miRNeasy, Qiagen, Venlo, Limburg) for further extraction and simultaneous DNA digestion (RNase-Free DNAse set, Qiagen). cDNA was synthesized using random primers and reverse transcriptase MMLV (New England Biolabs, Ipswich, MA). qPCR assays were performed using iTaq™ SYBR® Green Supermix and the CFX96 Real-Time PCR Detection System (Bio-Rad Laboratories, Hercules, Calif.).

T1 sequence (P28776 whole entry): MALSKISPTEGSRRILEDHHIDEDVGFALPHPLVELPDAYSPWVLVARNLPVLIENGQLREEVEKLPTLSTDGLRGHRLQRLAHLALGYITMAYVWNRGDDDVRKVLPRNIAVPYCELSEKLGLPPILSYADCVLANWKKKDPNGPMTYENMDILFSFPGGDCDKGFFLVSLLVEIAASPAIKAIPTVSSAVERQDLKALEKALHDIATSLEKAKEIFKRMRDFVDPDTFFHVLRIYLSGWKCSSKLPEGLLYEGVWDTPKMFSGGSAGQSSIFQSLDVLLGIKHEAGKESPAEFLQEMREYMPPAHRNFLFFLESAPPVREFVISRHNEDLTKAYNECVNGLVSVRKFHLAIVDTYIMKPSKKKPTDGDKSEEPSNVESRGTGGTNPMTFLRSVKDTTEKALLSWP

Structure (SMILES) | IDO enzyme activity in cell cultures (mouse IDO) | presence in tumors of the YIV-906 plus anti-PD1 group [1] | detection in the tumor mass [1] | IFNγ action on increasing iNOS/Arg ratio (Raw cells)
O=c1cc(-c2ccccc2)oc2cc(O)c(O)c(O)c12 [baicalein] | most potent | did not have | detected | potentiate
COc1c(O)cc2oc(-c3ccccc3)cc(=O)c2c1O [oroxylin A] |  |  | detected | potentiate
